Test results as given in US7064120B2, “Tricyclic pyridyl carboxamides and derivatives thereof tocolytic oxytocin receptor antagonists” (Wyeth, priority 2001, dated 2006).

Legend:
[1] = target: T1, human vasopressin V2 receptor subtype (Homo sapiens, UniProt P30518); test: Vasopressin binding in CHO cell membranes expressing human vasopressin V2 subtype receptors ([3H]arginine vasopressin radioligand binding); settings: for IC50: value in parentheses; for inhibition at 0.1 µM: 100 nM
T1 construct: host or cells: CHO cells, stably transfected (pZeoSV vector)
T1 sequence (P30518 whole entry): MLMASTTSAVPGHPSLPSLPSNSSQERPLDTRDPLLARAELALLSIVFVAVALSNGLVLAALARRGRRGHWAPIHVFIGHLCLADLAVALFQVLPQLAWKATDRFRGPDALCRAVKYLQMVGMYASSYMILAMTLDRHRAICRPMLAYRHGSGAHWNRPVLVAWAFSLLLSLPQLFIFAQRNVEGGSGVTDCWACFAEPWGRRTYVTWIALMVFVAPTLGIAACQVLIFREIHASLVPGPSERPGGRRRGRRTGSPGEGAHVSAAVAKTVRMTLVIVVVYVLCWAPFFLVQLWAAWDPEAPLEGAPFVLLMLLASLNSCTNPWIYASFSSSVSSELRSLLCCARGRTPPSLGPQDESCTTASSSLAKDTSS
How it was run: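 Membranes from CHO cells stably expressing human V2 receptor (25 to 50 μg protein/well) incubated 60 min at room temperature with [3H]arginine vasopressin in Tris-HCl pH 7.4 buffer with MgCl2, BSA and protease inhibitors. Filtration, scintillation counting; percent inhibition at one concentration or IC50 (nM).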

| SMILES | IC50 [1] [nM] | melting point | inhibition at 0.1 µM [1] [%] |
| --- | --- | --- | --- |
| COc1cc(C(=O)N2Cc3ccc(C(=O)N(C)Cc4ccc[n+]([O-])c4)n3Cc3ccccc32)ccc1-c1ccccc1C(F)(F)F [Example 8, 10-{[2-Methoxy-2′-trifluoromethyl-[1,1′-biphenyl]-4-yl]carbonyl}-N-methyl-N-(1-oxo-pyridin-3-ylmethyl)-10,11-dihydro-5H-pyrrolo[2,1-c][1,4]benzodiazepine-3-carboxamide] | 237 | 165 to 170 °C (dec.) |  |
| Cc1cc(C(=O)N2Cc3ccc(C(=O)N4CCN(c5ccccn5)CC4)n3Cc3ccccc32)ccc1-c1ccccc1C(F)(F)F [Example 87, (10-{[2-Methyl-2′-trifluoromethyl-[1,1′-biphenyl]-4-yl]carbonyl}-10,11-dihydro-5H-pyrrolo[2,1-c][1,4]benzodiazepin-3-yl)[4-(2-pyridinyl)-1-piperazinyl]methanone] |  |  | 4 |
| COc1ccccc1-c1ccc(C(=O)N2Cc3ccc(C(=O)NCc4ccncc4)n3Cc3ccccc32)cc1C [Example 88, 10-[(2′-Methoxy-2-methyl-[1,1′-biphenyl]-4-yl)carbonyl]-N-(4-pyridinylmethyl)-10,11-dihydro-5H-pyrrolo[2,1-c][1,4]benzodiazepine-3-carboxamide] |  |  | 13 |
| COc1cccc(-c2ccc(C(=O)N3Cc4ccc(C(=O)NCc5ccncc5)n4Cc4ccccc43)cc2C)c1 [Example 90, 10-[(3′-Methoxy-2-methyl-[1,1′-biphenyl]-4-yl)carbonyl]-N-(4-pyridinylmethyl)-10,11-dihydro-5H-pyrrolo[2,1-c][1,4]benzodiazepine-3-carboxamide] |  |  | 11 |
| COc1ccccc1-c1ccc(C(=O)N2Cc3ccc(C(=O)NCc4ccncc4)n3Cc3ccccc32)cc1 [Example 91, 10-[(2′-Methoxy-[1,1′-biphenyl]-4-yl)carbonyl]-N-(4-pyridinylmethyl)-10,11-dihydro-5H-pyrrolo[2,1-c][1,4]benzodiazepine-3-carboxamide] |  |  | 10 |
| Cc1ccccc1-c1ccc(C(=O)N2Cc3ccc(C(=O)NCc4ccncc4)n3Cc3ccccc32)cc1 [Example 92, 10-[(2′-Methyl-[1,1′-biphenyl]-4-yl)carbonyl]-N-(4-pyridinylmethyl)-10,11-dihydro-5H-pyrrolo[2,1-c][1,4]benzodiazepine-3-carboxamide] |  |  | 0 |
| COc1cc(C(=O)N2Cc3ccc(C(=O)NCc4ccncc4)n3Cc3ccccc32)ccc1-c1ccccc1C [Example 93, 10-[(2-Methoxy-2′-methyl-[1,1′-biphenyl]-4-yl)carbonyl]-N-(4-pyridinylmethyl)-10,11-dihydro-5H-pyrrolo[2,1-c][1,4]benzodiazepine-3-carboxamide] |  |  | 27 |
| COc1cccc(-c2cc(OC)c(C(=O)N3Cc4ccc(C(=O)NCc5ccncc5)n4Cc4ccccc43)cc2Cl)c1 [Example 95, 10-[(6-Chloro-3,3′-dimethoxy-[1,1′-biphenyl]-4-yl)carbonyl]-N-(4-pyridinylmethyl)-10,11-dihydro-5H-pyrrolo[2,1-c][1,4]benzodiazepine-3-carboxamide] |  |  | -1 |
| COc1ccccc1-c1ccc(C(=O)N2Cc3ccc(C(=O)N(C)Cc4cccnc4)n3Cc3ccccc32)cc1 [Example 104, 10-[(2′-Methoxy-[1,1′-biphenyl]-4-yl)carbonyl]-N-methyl-N-(3-pyridinylmethyl)-10,11-dihydro-5H-pyrrolo[2,1-c][1,4]benzodiazepine-3-carboxamide] |  |  | 23 |
| Cc1cc(C(=O)N2Cc3ccc(C(=O)N(C)Cc4cccnc4)n3Cc3ccccc32)ccc1-c1ccccc1C(F)(F)F [Example 112, N-Methyl-10-{[2-methyl-2′-trifluoromethyl-[1,1′-biphenyl]-4-yl]carbonyl}-N-(3-pyridinylmethyl)-10,11-dihydro-5H-pyrrolo[2,1-c][1,4]benzodiazepine-3-carboxamide] | 1130 |  |  |

The next lines start with the values.

| IC50 [1] [nM] | melting point | inhibition at 0.1 µM [1] [%] | SMILES |
| --- | --- | --- | --- |
| 433 | 124 to 126 °C |  | COc1cc(-c2ccccc2C(F)(F)F)c(Cl)cc1C(=O)N1Cc2ccc(C(=O)N(C)Cc3cccnc3)n2Cc2ccccc21 [Example 5, 10-{[6-Chloro-3-methoxy-2′-trifluoromethyl-[1,1′-biphenyl]-4-yl]carbonyl}-N-methyl-N-(pyridin-3-ylmethyl)-10,11-dihydro-5H-pyrrolo[2,1-c][1,4]benzodiazepine-3-carboxamide] |
| 309 | 196 to 198 °C |  | COc1cc(-c2ccccc2Cl)c(Cl)cc1C(=O)N1Cc2ccc(C(=O)N(C)Cc3cccnc3)n2Cc2ccccc21 [Example 6, 10-[(2′,6-Dichloro-3-methoxy-[1,1′-biphenyl]-4-yl)carbonyl]-N-methyl-N-(pyridin-3-ylmethyl)-10,11-dihydro-5H-pyrrolo[2,1-c][1,4]benzodiazepine-3-carboxamide] |
|  |  | 5 | COc1cccc(-c2ccc(C(=O)N3Cc4ccc(C(=O)N5CCN(c6ccccn6)CC5)n4Cc4ccccc43)cc2OC)c1 [Example 85, {10-[(2,3′-Dimethoxy-[1,1′-biphenyl]-4-yl)carbonyl]-10,11-dihydro-5H-pyrrolo[2,1-c][1,4]benzodiazepin-3-yl}[4-(2-pyridinyl)-1-piperazinyl]methanone] |
|  |  | 11 | O=C(c1ccc2n1Cc1ccccc1N(C(=O)c1ccc(-c3cccc4ccccc34)cc1Cl)C2)N1CCN(c2ccccn2)CC1 [Example 86, {10-[2-Chloro-4-(naphthalen-1-yl)benzoyl]-10,11-dihydro-5H-pyrrolo[2,1-c][1,4]benzodiazepin-3-yl}[4-(2-pyridinyl)-1-piperazinyl]methanone] |
|  |  | 15 | Cc1ccccc1-c1ccc(C(=O)N2Cc3ccc(C(=O)NCc4ccncc4)n3Cc3ccccc32)cc1C [Example 89, 10-[(2,2′-Dimethyl-[1,1′-biphenyl]-4-yl)carbonyl]-N-(4-pyridinylmethyl)-10,11-dihydro-5H-pyrrolo[2,1-c][1,4]benzodiazepine-3-carboxamide] |
|  |  | 5 | COc1cc(-c2ccccc2C)c(Cl)cc1C(=O)N1Cc2ccc(C(=O)NCc3ccncc3)n2Cc2ccccc21 [Example 94, 10-[(6-Chloro-3-methoxy-2′-methyl-[1,1′-biphenyl]-4-yl)carbonyl]-N-(4-pyridinylmethyl)-10,11-dihydro-5H-pyrrolo[2,1-c][1,4]benzodiazepine-3-carboxamide] |
|  |  | 22 | COc1cc(C(=O)N2Cc3ccc(C(=O)NCc4ccncc4)n3Cc3ccccc32)ccc1-c1cccc2ccccc12 [Example 96, 10-[3-Methoxy-4-(naphthalen-1-yl)benzoyl]-N-(4-pyridinylmethyl)-10,11-dihydro-5H-pyrrolo[2,1-c][1,4]benzodiazepine-3-carboxamide] |
|  |  | 16 | COc1ccccc1-c1ccc(C(=O)N2Cc3ccc(C(=O)NCc4ccncc4)n3Cc3ccccc32)cc1OC [Example 97, 10-[(2,2′-Dimethoxy-[1,1′-biphenyl]-4-yl)carbonyl]-N-(4-pyridinylmethyl)-10,11-dihydro-5H-pyrrolo[2,1-c][1,4]benzodiazepine-3-carboxamide] |
|  |  | 12 | O=C(NCc1ccncc1)c1ccc2n1Cc1ccccc1N(C(=O)c1ccc(-c3cccc4ccccc34)cc1Cl)C2 [Example 99, 10-[2-Chloro-4-(naphthalen-1-yl)benzoyl]-N-(4-pyridinylmethyl)-10,11-dihydro-5H-pyrrolo[2,1-c][1,4]benzodiazepine-3-carboxamide] |
|  |  | 0 | Cc1cc(C(=O)N2Cc3ccc(C(=O)NCc4ccncc4)n3Cc3ccccc32)ccc1-c1ccccc1C(F)(F)F [Example 100, 10-{[2-Methyl-2′-trifluoromethyl-[1,1′-biphenyl]-4-yl]carbonyl}-N-(4-pyridinylmethyl)-10,11-dihydro-5H-pyrrolo[2,1-c][1,4]benzodiazepine-3-carboxamide] |
| 270 |  |  | COc1ccccc1-c1ccc(C(=O)N2Cc3ccc(C(=O)N(C)Cc4cccnc4)n3Cc3ccccc32)cc1C [Example 101, 10-[(2′-Methoxy-2-methyl-[1,1′-biphenyl]-4-yl)carbonyl]-N-methyl-N-(3-pyridinylmethyl)-10,11-dihydro-5H-pyrrolo[2,1-c][1,4]benzodiazepine-3-carboxamide] |
| 534 |  |  | COc1cccc(-c2ccc(C(=O)N3Cc4ccc(C(=O)N(C)Cc5cccnc5)n4Cc4ccccc43)cc2C)c1 [Example 102, 10-[(3′-Methoxy-2-methyl-[1,1′-biphenyl]4-yl)carbonyl]-N-methyl-N-(3-pyridinyImethyl)-10,11-dihydro-5H-pyrrolo[2,1-c][1,4]benzodiazepine-3-carboxamide] |
| 318 |  |  | COc1ccccc1-c1ccc(C(=O)N2Cc3ccc(C(=O)N(C)Cc4cccnc4)n3Cc3ccccc32)cc1OC [Example 103, 10-[(2,2′-Dimethoxy-[1,1′-biphenyl]-4-yl)carbonyl]-N-methyl-N-(3-pyridinylmethyl)-10,11-dihydro-5H-pyrrolo[2,1-c][1,4]benzodiazepine-3-carboxamide] |
|  |  | 6 | Cc1ccccc1-c1ccc(C(=O)N2Cc3ccc(C(=O)N(C)Cc4cccnc4)n3Cc3ccccc32)cc1 [Example 105, N-Methyl-10-[(2′-methyl-[1,1′-biphenyl]-4-yl)carbonyl]-N-(3-pyridinylmethyl)-10,11-dihydro-5H-pyrrolo[2,1-c][1,4]benzodiazepine-3-carboxamide] |
| 545 |  |  | COc1ccccc1-c1ccc(C(=O)N2Cc3ccc(C(=O)N4CCN(c5ccncc5)CC4)n3Cc3ccccc32)cc1C [Example 113, {10-[(2′-Methoxy-2-methyl-[1,1′-biphenyl]-4-yl)carbonyl]-10,11-dihydro-5H-pyrrolo[2,1-c][1,4]benzodiazepin-3-yl}[4-(4-pyridinyl)-1-piperazinyl]methanone] |
